For 32 compounds, IC50 results are on record in EP3002287B1, “Thiochromeno[2,3-c]quinolin-12-one derivatives and their use as topoisomerase inhibitors” (National Defense Medical Center, priority 2014, dated 2016).

Read-outs that look alike come from different tables or passages of the source.

The test system of one experiment is PC-3. As to the kind of experiment: MTT assay for cell cytotoxicity. The following applies: 72 h, at least three independent experiments, read-out: MTT assay (IC50 ± SD) PC-3. It counts as cell-based, human. Here is the method: (§1) All of synthesis compounds were evaluated cell cytotoxicity by using MTT colorimetric assay on PC-3 and DU-145 cell lines. DU-145 and PC-3 are human hormone-refractory (androgen-independent) prostatic cancer cell lines from American Type Culture Collection (HTB-81™, ATCC, Rockville, MD)^125 and Bioresource Collection and Research Center (60122, BCRC, Taiwan)^126, respectively. Two of the "classical" cell lines were cultivated in RPMI-1640 medium supplemented with 5% fetal bovine serum (v/v), 100 U/mL penicillin, and […] streptomycin. Approximately 2 x 10^3 cells were seeded into each well of a 96-well plate and incubated in 5% CO2 at 37 °C for 24 h. To evaluate the in vitro cytotoxicity, all the synthetic compounds were dissolved in DMSO, prepared immediately before the experiments and diluted into the complete medium before being added to each well of a 96-well plate. Each compound was then added to the culture medium for designated various concentrations (0.15, 0.5, 1.5, 5, 15 µM). After 72 h, an amount of 100 µL of MTT (1 mg/mL) was added to each well, and the samples were incubated at 37 °C for 4 h. After removing the MTT solution, 100 µL of DMSO was added to each well and incubated at 37 °C for another 20 mins. The absorbency at 560 nm was measured by using an ELISA reader.
(§2) Results are expressed as mean values of at least three independent experiments. The IC50 values of testing compounds were described in Table 1. Table1. Effects of 10-Chloro-12H-thiochromeno[2,3-c]quinolin -12-one derivatives on cytotoxicity by MTT assay.
Background: Tetrazolium dyes change colour on reduction, which living cells bring about.

The subject of the next experiment is DU-145. As to the kind of experiment: MTT assay for cell cytotoxicity. The experiment is classed as cell-based, human. The following applies: 72 h, at least three independent experiments, read-out: MTT assay (IC50 ± SD) DU-145. The method, then:
as §1, §2

As to `O=c1c2cc(Cl)ccc2sc2c(NCC3CCCCC3)nc3ccccc3c12` [Compound N24, 10-Chloro-6-((cyclohexylmethyl)amino)-12H-thiochromeno[2,3-c]quinolin-12-one], the figures for the IC50 in the experiment with PC-3 (Homo sapiens) and in the experiment with DU-145 (Homo sapiens) were 14.8 ± 3.26 µM and 13.6 ± 3.88 µM, respectively.
On the same counts, the results for `O=c1c2cc(Cl)ccc2sc2c(N3CCCC3)nc3ccccc3c12` [Compound 20, 10-Chloro-6-(pyrrolidin-1-yl)-12H-thiochromeno[2,3-c]quinolin-12-one] are over 15 µM and over 15 µM.
As to `O=c1c2cc(Cl)ccc2sc2c(NC3Cc4ccccc4C3)nc3ccccc3c12` [Compound N20, 10-Chloro-6-((2,3-dihydro-1H-inden-2-yl)amino)-12H-thiochro meno[2,3-c]quinolin-12-one], the values for the IC50 with PC-3 (Homo sapiens) and in the experiment with DU-145 (Homo sapiens) were 6.2 ± 2.52 µM and 4.86 ± 0.99 µM, respectively.
The matching figures for `CC[C@@]1(O)C(=O)OCc2c1cc1n(c2=O)Cc2cc3ccccc3nc2-1` [Camptothecin, reference compound]: 0.1 ± 0.01 µM and 0.1 ± 0.01 µM.
On the same counts, the results for `O=c1c2cc(Cl)ccc2sc2c(NN3CCCCC3)nc3ccccc3c12` [Compound N34, 10-Chloro-6-(piperidin-1-ylamino)-12H-thiochromeno[2,3-c]qu inolin-12-one] are 8.22 ± 1.02 µM and 9.06 ± 1.95 µM.
In the case of `COc1ccc(CCNc2nc3ccccc3c3c(=O)c4cc(Cl)ccc4sc23)cc1` [Compound N31, 10-Chloro-6-((4-methoxyphenethyl)amino)-12H-thiochromeno[2,3-c]quinolin-12-one], the IC50 with PC-3 (Homo sapiens) and with DU-145 (Homo sapiens) was over 15 µM throughout.
For `CCCNc1nc2ccccc2c2c(=O)c3cc(Cl)ccc3sc12` [Compound N3, 10-Chloro-6 propylamino-12H-thiochromeno[2,3-c]quinolin-1 2-one], the figures for the IC50 in the experiment with PC-3 (Homo sapiens) and in the experiment on DU-145 (Homo sapiens) were 7.41 ± 3.43 µM and 7.64 ± 2.74 µM, respectively.
On the same counts, the results for `O=C1c2c(O)ccc(O)c2C(=O)c2c(NCCNCCO)ccc(NCCNCCO)c21` [Mitoxantrone, reference compound] are 0.39 ± 0.02 µM and 0.1 ± 0.01 µM.
The matching figures for `O=c1c2cc(Cl)ccc2sc2c(NC3CCCCC3)nc3ccccc3c12` [Compound N21, 10-Chloro-6-(cyclohexylamino)-12H-thiochromeno[2,3-c]quino lin-12-one]: 7.51 ± 0.22 µM and 8.06 ± 2.08 µM.
On the same counts, the results for `O=c1c2cc(Cl)ccc2sc2c(N3CCSCC3)nc3ccccc3c12` [Compound 14, 10-Chloro-6-thiomorpholino-12H thiochromeno[2,3-c]quinolin-12-one] are over 15 µM and over 15 µM.
Consider `CCC(CC)Nc1nc2ccccc2c2c(=O)c3cc(Cl)ccc3sc12` [Compound N6, 10-Chloro-6-(pentan-3-ylamino)-12H-thiochromeno[2,3-c]quin olin-12-one], for which the IC50 in the experiment on PC-3 (Homo sapiens) and in the experiment on DU-145 (Homo sapiens) was over 15 µM throughout.
With `O=c1c2cc(Cl)ccc2sc2c(NC3CCN(Cc4ccccc4)CC3)nc3ccccc3c12` [Compound N22, 6-((1-Benzylpiperidin-4-yl)amino)-10-chloro-12H-thiochromen o[2,3-c]quinolin-12-one], the figures for the IC50 with PC-3 (Homo sapiens) and with DU-145 (Homo sapiens) were 6.47 ± 0.3 µM and 8.39 ± 1.84 µM, respectively.
As to `CNc1nc2ccccc2c2c(=O)c3cc(Cl)ccc3sc12` [Compound N1, 10-Chloro-6-methylamino-12H-thiochromeno[2,3-c]quinolin-12-one], the IC50 in the experiment with PC-3 (Homo sapiens) came out at 14.5 ± 2.7 µM; in the experiment with DU-145 (Homo sapiens), 11.7 ± 5.15 µM.
The matching figures for `O=c1c2cc(Cl)ccc2sc2c(NCc3cccs3)nc3ccccc3c12` [Compound N23, 10-Chloro-6-((thiophen-2ylmethyl)amino)-12H-thiochromeno[2,3-c]quinolin-12-one]: over 15 µM and 14.7 ± 3.84 µM.
As to `O=c1c2cc(Cl)ccc2sc2c(NCCO)nc3ccccc3c12` [Compound N9, 10-Chloro-6-(2-ethanolamino)-12H-thiochromeno[2,3-c]quinol in-12-one], the IC50 worked out at 7.48 ± 3.35 µM with PC-3 and 11.6 ± 7.23 µM in the experiment with DU-145.
As for `COc1cccc2c1C(=O)c1c(O)c3c(c(O)c1C2=O)C[C@@](O)(C(=O)CO)C[C@@H]3O[C@H]1C[C@H](N)[C@H](O)[C@H](C)O1` [Doxorubicin, reference compound], the IC50 in the experiment with DU-145 (Homo sapiens) is 0.12 ± 0.03 µM.
`O=c1c2cc(Cl)ccc2sc2c(NCCCCCO)nc3ccccc3c12` [Compound N11, 10-Chloro-6-(5-pentanolamino)-12H-thiochromeno[2,3-c]quin olin-12-one]: the IC50 with PC-3 worked out at 8.38 ± 3.39 µM; with DU-145, 4.95 ± 0.58 µM.
On to `COc1ccc(CNc2nc3ccccc3c3c(=O)c4cc(Cl)ccc4sc23)cc1OC` [Compound N29, 10-Chloro-6-((3,4-dimethoxybenzyl)amino)-12H-thiochromeno [2,3-c]quinolin-12-one], for which the IC50 in the experiment on PC-3 (Homo sapiens) turned out to be 6.2 ± 2.52 µM; in the experiment on DU-145 (Homo sapiens), 4.86 ± 0.99 µM.
With `COc1cc([C@@H]2c3cc4c(cc3[C@@H](O[C@@H]3O[C@@H]5CO[C@@H](C)O[C@H]5[C@H](O)[C@H]3O)[C@H]3COC(=O)[C@H]23)OCO4)cc(OC)c1O` [Etoposide (VP-16), Etoposide, reference compound], the IC50 was determined as 4.33 ± 0.86 µM in the experiment with PC-3 (Homo sapiens) and 0.4 ± 0.01 µM in the experiment with DU-145 (Homo sapiens).
On the same counts, the results for `O=C1CCCCN1c1nc2ccccc2c2c(=O)c3cc(Cl)ccc3sc12` [Compound 21, 10-chloro-6-(2-oxopiperidin-1-yl)-12H-thiochromeno[2,3-c]quin olin-12-one] are 9.55 ± 2.42 µM and 11.1 ± 4.18 µM.
On the same counts, the results for `O=c1c2cc(Cl)ccc2sc2c(NCCN3CCOCC3)nc3ccccc3c12` [Compound N16, 10-Chloro-6-((2-morpholinoethyl)amino)-12H-thiochromeno[2,3-c]quinolin-12-one] are over 15 µM and over 15 µM.
On the same counts, the results for `COc1ccccc1CNc1nc2ccccc2c2c(=O)c3cc(Cl)ccc3sc12` [Compound N28, 10-Chloro-6-((2-methoxybenzyl)amino)-12H-thiochromeno[2,3-c]quinolin-12-one] are 6.01 ± 3.31 µM and 9.61 ± 4.88 µM.
Turning to `CCC(CO)Nc1nc2ccccc2c2c(=O)c3cc(Cl)ccc3sc12` (stereo not drawn) [Compound N12, 10-Chloro-6-((1-hydroxybutan-2yl)amino)-12H-thiochromeno[2,3-c]quinolin-12-one], the IC50 amounted to 7.05 ± 2.48 µM in the experiment with PC-3 (Homo sapiens) and 6.74 ± 2.14 µM in the experiment with DU-145 (Homo sapiens).
The matching figures for `CC(C)CC(C)Nc1nc2ccccc2c2c(=O)c3cc(Cl)ccc3sc12` (stereo not drawn) [Compound N13, 10-Chloro-6-((4-methylpentan-2yl)amino)-12H-thiochromeno[2,3-c]quinolin-12-one]: 10.4 ± 2.3 µM and 14.2 ± 1.18 µM.
For the compound `CCNc1nc2ccccc2c2c(=O)c3cc(Cl)ccc3sc12` [Compound N2, 10-Chloro-6-ethylamino-12H-thiochromeno[2,3-c]quinolin-12-one], the results for the IC50 in the experiment with PC-3 (Homo sapiens) and in the experiment on DU-145 (Homo sapiens) were 5.18 ± 2.2 µM and 6.7 ± 1.62 µM, respectively.
On the same counts, the results for `CCN1CCN(c2nc3ccccc3c3c(=O)c4cc(Cl)ccc4sc23)CC1` [Compound 9, 10-Chloro-6-(4-ethylpiperazin-1-yl)-12H-thiochromeno[2,3-c]q uinolin-12-one] are 12 ± 3.41 µM and over 15 µM.
The matching figures for `O=c1c2cc(Cl)ccc2sc2c(N3CCC(CCCC4CCNCC4)CC3)nc3ccccc3c12` [Compound 19, 10-Chloro-6-(4-(3-(piperidin-4-yl)propyl)piperidin-1yl)-12H-thi ochromeno[2,3-c]quinolin-12-one]: 6.36 ± 0.17 µM and 9.02 ± 1.2 µM.
The matching figures for `Nc1ccc(CCNc2nc3ccccc3c3c(=O)c4cc(Cl)ccc4sc23)cc1` [Compound N32, 6-((4-Aminophenethyl)amino)-10-chloro-12H-thiochromeno[2,3-c]quinolin-12-one]: 10.1 ± 0.94 µM and 13.6 ± 1.39 µM.
Turning to `CCCCNc1nc2ccccc2c2c(=O)c3cc(Cl)ccc3sc12` [Compound N4, 6-(Butylamino)-10-chloro-12H-thiochromeno[2,3-c]quinolin-1 2-one], the values for the IC50 with PC-3 (Homo sapiens) and with DU-145 (Homo sapiens) were 10.1 ± 1.32 µM and 10.3 ± 2.46 µM, respectively.
On the same counts, the results for `O=c1c2cc(Cl)ccc2sc2c(NCc3ccccn3)nc3ccccc3c12` [Compound N26, 10-Chloro-6-((pyridin-2-ylmethyl)amino)-12H-thiochromeno[2,3-c]quinolin-12-one] are 14.2 ± 2.22 µM and 14.8 ± 1.99 µM.
The matching figures for `NC(N)=Nc1nc2ccccc2c2c(=O)c3cc(Cl)ccc3sc12` [Compound N33, 2-(10-Chloro-12-oxo-12H-thiochromeno[2,3-c]quinolin-6-yl)gu anidine]: 6.13 ± 6.98 µM and 8.11 ± 1.37 µM.
On the same counts, the results for `O=c1c2cc(Cl)ccc2sc2c(N3CCC(O)CC3)nc3ccccc3c12` [Compound 16, 10-Chloro-6-(4-hydroxypiperidin-1-yl)-12H-thiochromeno[2,3-c]quinolin-12-one] are 9.55 ± 2.42 µM and 11.1 ± 4.18 µM.

For orientation: IC50 means the concentration that gives 50% inhibition.
